These are literature values, as cited in patent US10563263B2, “Genetic polymorphisms associated with statin response and cardiovascular diseases, methods of detection and uses thereof” (CELERA CORPORATION, priority 2010, dated 2020).

The structures appear in SMILES notation.

The data set deals with major cardiovascular events. The settings on record: JUPITER Study, 17,802 individuals (Ridker et al. 2008); cited from earlier work.

Regarding `CC(C)c1nc(N(C)S(C)(=O)=O)nc(-c2ccc(F)cc2)c1/C=C/[C@@H](O)C[C@@H](O)CC(=O)O` [rosuvastatin], the “incidence of major cardiovascular events (MI, stroke, arterial revascularization, hospitalization for unstable angina, death from cardiovascular causes)” value is listed as “significantly reduced the incidence of major cardiovascular events”.
